Results as given in ChEMBL document CHEMBL5365431 (J Med Chem, 2023).

Columns and labels:
CAPAN-1 [1] = assay: Antiproliferative activity against human Talazoparib-resistant CAPAN-1 cells assessed as cell proliferation inhibition incubated for 7 days by SRB assay; format: functional, cell-based
[2] = target: Poly [ADP-ribose] polymerase 1 (Homo sapiens, UniProt P09874); assay: Inhibition of PARP1 (unknown origin) using histone as substrate by ELISA
CAPAN-1 [3] = assay: Antiproliferative activity against human CAPAN-1 cells assessed as cell proliferation inhibition incubated for 7 days by SRB assay; format: functional, cell-based
[4] = Antiproliferative activity against human Olaparib-resistant CAPAN-1 cells assessed as cell proliferation inhibition incubated for 7 days by SRB assay; format: functional, cell-based
[5] = Half life in Sprague-Dawley rat at 5 mg/kg, iv and measured upto 24 hrs; format: ADME, organism-based; conditions: in vivo
[6] = Clearance in Sprague-Dawley rat at 5 mg/kg, iv and measured upto 24 hrs; format: ADME, organism-based; conditions: in vivo
[7] = Stabilization of human His-tagged PARP1-DNA complex assessed as increase in fluorescence signal incubated for 60 mins using NAD+ as substrate by DSB fluorescence polarization assay

Sequence of Poly [ADP-ribose] polymerase 1 (P09874 whole entry): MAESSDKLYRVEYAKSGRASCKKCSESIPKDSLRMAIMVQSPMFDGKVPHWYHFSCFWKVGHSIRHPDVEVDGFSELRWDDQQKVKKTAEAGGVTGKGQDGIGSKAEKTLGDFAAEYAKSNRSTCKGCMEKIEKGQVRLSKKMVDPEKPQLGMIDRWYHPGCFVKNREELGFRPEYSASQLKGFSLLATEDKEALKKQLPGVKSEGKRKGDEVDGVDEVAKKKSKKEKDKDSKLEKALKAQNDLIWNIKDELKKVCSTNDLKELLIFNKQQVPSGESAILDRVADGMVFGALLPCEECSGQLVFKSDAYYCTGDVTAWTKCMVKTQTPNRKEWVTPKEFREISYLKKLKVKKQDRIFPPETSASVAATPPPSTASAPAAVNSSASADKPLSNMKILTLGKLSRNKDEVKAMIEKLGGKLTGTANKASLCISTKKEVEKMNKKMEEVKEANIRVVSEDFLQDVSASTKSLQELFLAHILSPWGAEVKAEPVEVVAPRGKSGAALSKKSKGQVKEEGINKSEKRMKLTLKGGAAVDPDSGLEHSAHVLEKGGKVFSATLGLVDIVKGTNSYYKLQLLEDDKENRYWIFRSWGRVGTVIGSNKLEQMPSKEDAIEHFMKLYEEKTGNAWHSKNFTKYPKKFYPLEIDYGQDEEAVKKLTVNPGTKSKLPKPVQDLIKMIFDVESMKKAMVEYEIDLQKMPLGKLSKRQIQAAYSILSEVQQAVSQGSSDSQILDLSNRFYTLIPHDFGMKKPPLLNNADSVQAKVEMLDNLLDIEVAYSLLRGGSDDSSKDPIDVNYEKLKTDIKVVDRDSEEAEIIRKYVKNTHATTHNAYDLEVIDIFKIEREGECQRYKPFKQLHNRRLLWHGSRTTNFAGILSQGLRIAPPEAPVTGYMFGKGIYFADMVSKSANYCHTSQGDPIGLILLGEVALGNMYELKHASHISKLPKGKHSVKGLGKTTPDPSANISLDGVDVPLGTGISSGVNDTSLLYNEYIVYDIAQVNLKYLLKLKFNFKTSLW

Row | IC50 [2] | half-life [5] | clearance [6] | EC50 [7] | Structure (SMILES) | IC50 (CAPAN-1 [1]) | IC50 (CAPAN-1 [3]) | IC50 [4]
1 | 6.34 nM | – | – | – | Cn1ccc(-c2nnc3n2CCN(C(=O)c2cc(Cc4n[nH]c(=O)c5ccccc45)ccc2F)C3)n1 | 168 nM | 30.4 nM | 135 nM
2 | 6.19 nM | – | – | – | O=C(c1cc(Cc2n[nH]c(=O)c3ccccc23)ccc1F)N1CCn2c(nnc2-c2ccc(C3COC3)o2)C1 | 191 nM | 15.5 nM | 363 nM
3 | 2.33 nM | – | – | – | O=C(c1cc(Cc2n[nH]c(=O)c3ccccc23)ccc1F)N1CCn2c(nnc2-c2ccc(C3CCOCC3)o2)C1 | 78.4 nM | 3.8 nM | 78.2 nM
4 | 13.5 nM | – | – | – | Cc1cccc(-c2nnc3n2CCN(C(=O)c2cc(Cc4n[nH]c(=O)c5ccccc45)ccc2F)C3)n1 | 68.5 nM | 6.47 nM | 42.2 nM
5 | 0.44 nM | – | – | – | O=C(c1cc(Cc2n[nH]c(=O)c3ccccc23)ccc1F)N1CCn2c(nnc2-c2ccoc2)C1 | 42.5 nM | 8.81 nM | 73.6 nM
6 | – | 31.8 min | 34.3 mL/min/kg | 234 nM | O=C(c1cc(Cc2n[nH]c(=O)c3ccccc23)ccc1F)N1CCN(C(=O)C2CC2)CC1 [OLAPARIB] | – | – | –
7 | 1.35 nM | – | – | – | CN(C)Cc1ccc(-c2nnc3n2CCN(C(=O)c2cc(Cc4n[nH]c(=O)c5ccccc45)ccc2F)C3)o1 | 941 nM | 151 nM | 1030 nM
8 | 0.74 nM | – | – | – | O=C(c1cc(Cc2n[nH]c(=O)c3ccccc23)ccc1F)N1CCn2c(nnc2-c2ccc(Cl)o2)C1 | 5.91 nM | 1.48 nM | 12.6 nM
9 | 8.15 nM | – | – | – | CNCC(F)(F)c1ccc(-c2nnc3n2CCN(C(=O)c2cc(Cc4n[nH]c(=O)c5ccccc45)ccc2F)C3)o1 | 393 nM | 24.3 nM | 423 nM
10 | < 0.1 nM | – | – | – | O=C(c1cc(Cc2n[nH]c(=O)c3ccccc23)ccc1F)N1CCn2c(nnc2-c2cc(Br)c(Cl)o2)C1 | 12.1 nM | 0.24 nM | 20.3 nM
11 | 8.49 nM | – | – | – | NCC(F)(F)c1ccc(-c2nnc3n2CCN(C(=O)c2cc(Cc4n[nH]c(=O)c5ccccc45)ccc2F)C3)o1 | 627 nM | 122 nM | 766 nM
12 | 0.96 nM | – | – | – | CCN(CC)Cc1ccc(-c2nnc3n2CCN(C(=O)c2cc(Cc4n[nH]c(=O)c5ccccc45)ccc2F)C3)o1 | 701 nM | 98.3 nM | 812 nM
13 | – | – | – | 621 nM | NC(=O)c1cccc2cn(-c3ccc([C@@H]4CCCNC4)cc3)nc12 [NIRAPARIB] | – | – | –
14 | – | – | – | – | Cn1ncnc1[C@H]1c2n[nH]c(=O)c3cc(F)cc(c23)N[C@@H]1c1ccc(F)cc1 [TALAZOPARIB] | 906 nM | 7.77 nM | 686 nM
15 | 61.7 nM | – | – | – | O=C(c1cc(Cc2n[nH]c(=O)c3ccccc23)ccc1F)N1CCn2c(nnc2-c2ccc(C(F)(F)F)o2)C1 | 6.09 nM | 2.32 nM | 52.3 nM
16 | 1.91 nM | – | – | – | O=C(c1cc(Cc2n[nH]c(=O)c3ccccc23)ccc1F)N1CCn2c(nnc2C2CCOC2)C1 (stereo not given) | 517 nM | 39.1 nM | 1110 nM
17 | < 0.001 nM | – | – | – | Cc1cc(-c2nnc3n2CCN(C(=O)c2cc(Cc4n[nH]c(=O)c5ccccc45)ccc2F)C3)oc1C | 21 nM | 1.44 nM | 22.1 nM

Row | IC50 [2] | half-life [5] | clearance [6] | EC50 [7] | Structure (SMILES) | IC50 (CAPAN-1 [1]) | IC50 (CAPAN-1 [3]) | IC50 [4]
18 | 1.26 nM | – | – | – | O=C(c1cc(Cc2n[nH]c(=O)c3ccccc23)ccc1F)N1CCn2c(nnc2-c2ccc(CN3CCCC3)o2)C1 | 905 nM | 161 nM | 1430 nM
19 | 0.02 nM | – | – | – | O=C(c1cc(Cc2n[nH]c(=O)c3ccccc23)ccc1F)N1CCn2c(nnc2-c2ccc(CN3CCSCC3)o2)C1 | 404 nM | 50.5 nM | 618 nM
20 | 0.23 nM | – | – | – | N#Cc1ccc(-c2nnc3n2CCN(C(=O)c2cc(Cc4n[nH]c(=O)c5ccccc45)ccc2F)C3)o1 | > 10000 nM | 83.8 nM | –
21 | 0.26 nM | – | – | – | O=C(c1cc(Cc2n[nH]c(=O)c3ccccc23)ccc1F)N1CCn2c(nnc2-c2ccco2)C1 | 40 nM | 7.39 nM | 56.4 nM
22 | 7.32 nM | – | – | – | Cn1cc(-c2nnc3n2CCN(C(=O)c2cc(Cc4n[nH]c(=O)c5ccccc45)ccc2F)C3)cn1 | 6990 nM | 351 nM | 7160 nM
23 | 0.97 nM | – | – | – | O=C(c1cc(Cc2n[nH]c(=O)c3ccccc23)ccc1F)N1CCn2c(nnc2-c2ccno2)C1 | 249 nM | 18.6 nM | 348 nM
24 | 23.1 nM | – | – | – | O=C(c1cc(Cc2n[nH]c(=O)c3ccccc23)ccc1F)N1CCn2c(nnc2-c2ccc(C(F)F)o2)C1 | 70.3 nM | 6.64 nM | 71.1 nM
25 | 5.67 nM | – | – | – | O=C(c1cc(Cc2n[nH]c(=O)c3ccccc23)ccc1F)N1CCn2c(nnc2-c2ccc(C(F)(F)CO)o2)C1 | 115 nM | 15.9 nM | 137 nM
26 | 12.9 nM | – | – | – | CP(C)(=O)c1ccc(-c2nnc3n2CCN(C(=O)c2cc(Cc4n[nH]c(=O)c5ccccc45)ccc2F)C3)o1 | > 10000 nM | 3550 nM | > 10000 nM
27 | 0.86 nM | – | – | – | CNCc1ccc(-c2nnc3n2CCN(C(=O)c2cc(Cc4n[nH]c(=O)c5ccccc45)ccc2F)C3)o1 | 4600 nM | 500 nM | 6150 nM
28 | 0.24 nM | – | – | – | Cc1ccc(-c2nnc3n2CCN(C(=O)c2cc(Cc4n[nH]c(=O)c5ccccc45)ccc2F)C3)o1 | 9.98 nM | 1.82 nM | 8.28 nM
29 | 0.17 nM | – | – | – | O=C(c1cc(Cc2n[nH]c(=O)c3ccccc23)ccc1F)N1CCn2c(nnc2-c2ccc(CN3CCCCC3)o2)C1 | 393 nM | 56.8 nM | 605 nM
30 | 0.96 nM | – | – | – | O=C(c1cc(Cc2n[nH]c(=O)c3ccccc23)ccc1F)N1CCn2c(nnc2-c2ccc(CN3CCC3)o2)C1 | 5590 nM | 349 nM | 6490 nM
31 | 1.28 nM | – | – | – | O=C(c1cc(Cc2n[nH]c(=O)c3ccccc23)ccc1F)N1CCn2c(nnc2-c2ccc(CN3CCOCC3)o2)C1 | 2000 nM | 290 nM | 5140 nM
32 | 2.14 nM | – | – | – | Cc1nc(-c2nnc3n2CCN(C(=O)c2cc(Cc4n[nH]c(=O)c5ccccc45)ccc2F)C3)cs1 | 203 nM | 19 nM | –
33 | 47.4 nM | – | – | – | O=C(c1cc(Cc2n[nH]c(=O)c3ccccc23)ccc1F)N1CCn2c(nnc2-c2ccc([N+](=O)[O-])o2)C1 | 214 nM | 5.89 nM | 178 nM
